One assay concerns MCF7. Kind of assay: Cytotoxicity against human MCF7 cells assessed as growth inhibition after 72 hrs by MTT assay. The format is functional, cell-based. To be noted: MCF7, 72 h. Background: Tetrazolium assays rely on reduction of a dye to a coloured formazan, in cell work by metabolically active cells.
For the next assay, the system named is HeLa. The assay is described as follows: Cytotoxicity against human HeLa cells assessed as growth inhibition after 72 hrs by MTT assay. The class given is functional, cell-based.
Assay [1] concerns HepG2. The assay is described as follows: Cytotoxicity against human HepG2 cells assessed as growth inhibition after 72 hrs by MTT assay. The class given is functional, cell-based. Particulars: HepG2, 72 h.
A further assay concerns HCT-116. The assay is described as follows: Cytotoxicity against human HCT116 cells assessed as growth inhibition after 72 hrs by MTT assay. The class given is functional, cell-based. To be noted: HCT-116, 72 h.
The subject of the next assay is U-251. Kind of assay: Cytotoxicity against human U251 cells assessed as growth inhibition after 72 hrs by MTT assay. The class given is functional, cell-based. Particulars: U-251, 72 h.
Assay [2] deals with HepG2. The assay is described as follows: Inhibition of vacuolar H+-ATPase in human HepG2 cells assessed as release of phosphate after 72 hrs by malachite green dye-based spectrophotometric analysis. The format is cell-based.
For assay [3], the system named is HepG2. The assay is described as follows: Inhibition of vacuolar H+-ATPase in human HepG2 cells assessed as neutralization of lysosomal pH at 10 to 100 nM after 48 hrs by LysoTracker Red dye-based confocal microscopic analysis. The class given is cell-based.

Activity calls are given as the source filed them. The rule behind the calls is not given here.

As to `COc1cc2c(O[C@@H]3OC[C@@H](OC)[C@H](OC)[C@H]3O[C@@H]3O[C@H](CO)[C@@H](O)[C@H](O)[C@H]3O)c3c(c(-c4ccc5c(c4)OCO5)c2cc1OC)C(=O)OC3`, the IC50 with MCF7, with HeLa, in the assay on HepG2 [1], in the assay on HCT-116 and with U-251 was above 200 nM each time.

Regarding `COc1cc2c(O[C@@H]3OC[C@@H](OC)[C@H](OC)[C@H]3O[C@@H]3O[C@H](COC(C)=O)[C@@H](OC(C)=O)[C@H](OC(C)=O)[C@H]3OC(C)=O)c3c(c(-c4ccc5c(c4)OCO5)c2cc1OC)C(=O)OC3`, the IC50 was found to be 92 nM in the assay with MCF7; 74 nM in the assay on HeLa; 39 nM in the assay with HepG2 [1]; 82 nM in the assay with HCT-116; 101 nM in the assay with U-251. The inhibition entry with HepG2 [2] is “Dose-dependent effect”. For the same molecule, in the assay on HepG2 [3], the inhibition result is “Active”.

In the case of `COc1cc2c(O[C@@H]3OC[C@@H](OC)[C@H](OC)[C@H]3O)c3c(c(-c4ccc5c(c4)OCO5)c2cc1OC)C(=O)OC3` [CLEISTANTHIN], the IC50 is 190 nM in the assay on MCF7; 67 nM with HeLa; 36 nM with HepG2 [1]; 31 nM with HCT-116; 97 nM in the assay with U-251. Besides, the inhibition result with HepG2 [2] is “Dose-dependent effect”. The inhibition result with HepG2 [3] is “Active”.

As for `CC(=O)O[C@H]1C(=O)[C@@]2(C)[C@H]([C@H](OC(=O)c3ccccc3)[C@]3(O)C[C@H](OC(=O)[C@H](O)[C@@H](NC(=O)c4ccccc4)c4ccccc4)C(C)=C1C3(C)C)[C@]1(OC(C)=O)CO[C@@H]1C[C@@H]2O` [PACLITAXEL], the IC50 is 45 nM with MCF7; 96 nM with HeLa; 84 nM in the assay on HepG2 [1]; 69 nM with HCT-116; 128 nM in the assay with U-251.

What is called IC50 is the concentration that gives 50% inhibition.

Source of the values: ChEMBL document CHEMBL3297662, “Synthesis and identification of cytotoxic diphyllin glycosides as vacuolar H(+)-ATPase inhibitors” (Eur J Med Chem, 2014).
